Measurements published in patent publication US20240174690A1, “ANNULATED 2-AMINO-3-CYANO THIOPHENES AND DERIVATIVES FOR THE TREATMENT OF CANCER” (BOEHRINGER INGELHEIM INTERNATIONAL GMBH, priority 2021, published 2024).
pIC50: −log10 of the molar value.

Experiments:
[1] = Caco-2 assay (permeability PappAB, PappBA, efflux ratio); type: in vitro ADME; settings: human, Caco-2, 10 μM test compound, pH 7.4; for Papp A→B at 90 min, 10 μM: apical to basolateral; for efflux ratio at 90 min, 10 μM: efflux ratio PappBA/PappAB, read-out: Caco ER
Summary of the method: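 Confluent Caco-2 monolayers on filter supports, 0.25% BSA in both donor and receiver buffer; transport measured a-b and b-a. After 25-30 min preincubation at 37 °C, samples at 0, 30, 60, 90 min quantified by HPLC/MS/MS. Papp from receiver amount per time, filter area and initial donor concentration; efflux ratio = PappBA/PappAB.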

KRAS (G12D)::SOS1 = KRAS (G12D)::SOS1 (Homo sapiens (Human), UniProt P01116, G12D); test: KRAS::SOS1 AlphaScreen binding assay, KRAS G12D
Summary of the method: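 AlphaScreen measurement of compound disruption of biotinylated, GDP-loaded KRAS 1-169 (10 nM; G12C 7.5 nM) binding to GST-SOS1 564-1049 (5 nM with G12D/G12C, 10 nM otherwise), with 10 μM GDP in PBS/0.1% BSA/0.05% Tween 20. Timing was 30 min compound preincubation, then 60 min with beads at room temperature; top concentration 100 μM, 4-parameter IC50.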

KRAS (G12D)::SOS1, sequence (P01116 other isoform, or with tags, fused parts or gaps G12D): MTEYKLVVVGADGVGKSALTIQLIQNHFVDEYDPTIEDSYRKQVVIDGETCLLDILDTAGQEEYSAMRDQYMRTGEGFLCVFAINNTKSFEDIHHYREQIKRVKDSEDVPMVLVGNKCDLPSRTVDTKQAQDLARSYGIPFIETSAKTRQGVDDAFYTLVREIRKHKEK

SMILES	Papp A→B at 90 min, 10 μM [1] [×10⁻⁶ cm/s]	efflux ratio at 90 min, 10 μM [1]	pIC50 (KRAS (G12D)::SOS1)
C[C@H](Oc1cc(-n2ccc(C(=O)NC3COC3)n2)nc(-c2noc3c2CCC[C@@]32CCCc3sc(N)c(C#N)c32)n1)[C@@H]1CCCN1C [II-25]	1.1	22.7	8.70
C[C@H](Oc1cc([C@@H]2CCOC2)nc(-c2onc3c2CCC[C@@]32CCCc3sc(N)c(C#N)c32)n1)[C@@H]1CCCN1C [I-22]	18	1.9	9.00
C[C@H]1CN(C)CCCN1c1cc(N2CC[C@H](N(C)C)C2)nc(-c2noc3c2CCC[C@@]32CCCc3sc(N)c(C#N)c32)n1 [II-16]	0.5	33.3	9.00
C[C@H](Oc1cc(N2CC[C@H](N3CCCCC3)C2)nc(-c2noc3c2CCC[C@@]32CCCc3sc(N)c(C#N)c32)n1)[C@@H]1CCCN1C [II-12]		12.1	9.00
C[C@H](Oc1nc(-c2onc3c2CCC[C@@]32CCCc3sc(N)c(C#N)c32)cc(N2CCNC3(CC3)C2)n1)[C@@H]1CCCN1C [I-2]	1.2	17.5	8.70
C[C@H](Oc1cc(-c2ccn(C3COC3)n2)nc(-c2onc3c2CCC[C@@]32CCCc3sc(N)c(C#N)c32)n1)[C@@H]1CCCN1C [I-34]	3.6	9.2	8.40
CO[C@@H]1C[C@@H]([C@H](C)Oc2cc(N3CCN(C)C4(CC4)C3)nc(-c3onc4c3CCC[C@@]43CCCc4sc(N)c(C#N)c43)n2)N(C)C1 [I-50]		1.7	9.00
C[C@H](Oc1cc(-c2ccn(CC(C)(C)O)n2)nc(-c2onc3c2CCC[C@@]32CCCc3sc(N)c(C#N)c32)n1)[C@@H]1CCCN1C [I-26]	3	10.7	8.52
C[C@H](Oc1cc(N2CC(N(C)C)C2)nc(-c2noc3c2CCC[C@@]32CCCc3sc(N)c(C#N)c32)n1)[C@@H]1CCCN1C [II-7]	1.3	21.5	9.00
C[C@H](Oc1cc(-c2ccn(C)n2)nc(-c2noc3c2CCC[C@@]32CCCc3sc(N)c(C#N)c32)n1)[C@@H]1C[C@@H](F)CN1C [II-27]	11	0.7	8.10
C[C@H](Oc1cc(-n2ccnc2)nc(-c2onc3c2CCC[C@@]32CCCc3sc(N)c(C#N)c32)n1)[C@@H]1CCCN1C [I-20]	4.3	4.9	8.70
C[C@H](Oc1cc(C2CCCO2)nc(-c2noc3c2CCC[C@@]32CCCc3sc(N)c(C#N)c32)n1)[C@@H]1CCCN1C (stereo partly shown) [II-44]	15	1.5	8.70
C[C@H](O)Cn1ccc(-c2cc(O[C@@H](C)[C@@H]3CCCN3C)nc(-c3onc4c3CCC[C@@]43CCCc4sc(N)c(C#N)c43)n2)n1 [I-31]	2.3	13.9	8.52
C[C@H](Oc1cc(-n2ccc(C(=O)N[C@@H]3CCOC3)n2)nc(-c2onc3c2CCC[C@@]32CCCc3sc(N)c(C#N)c32)n1)[C@@H]1CCCN1C [I-56]		10.4	8.70
CN[C@H]1CCN(c2cc(O[C@@H](C)[C@@H]3CCCN3C)nc(-c3noc4c3CCC[C@@]43CCCc4sc(N)c(C#N)c43)n2)C1 [II-35]	< 0.5		8.70
C[C@H](Oc1cc(N2CCNC3(COC3)C2)nc(-c2noc3c2CCC[C@@]32CCCc3sc(N)c(C#N)c32)n1)[C@@H]1CCCN1C [II-31]	< 0.1		9.00
C[C@H](Oc1cc(N2CCNC3(CC3)C2)nc(-c2onc3c2CCC[C@@]32CCCc3sc(N)c(C#N)c32)n1)[C@@H]1C[C@@H](F)CN1C [I-45]	11	3.1	9.00

SMILES	Papp A→B at 90 min, 10 μM [1] [×10⁻⁶ cm/s]	efflux ratio at 90 min, 10 μM [1]	pIC50 (KRAS (G12D)::SOS1)
C[C@H](Oc1cc(N2CCNC(C)(C)C2)nc(-c2noc3c2CCC[C@@]32CCCc3sc(N)c(C#N)c32)n1)[C@@H]1CCCN1C [II-32]	0.3	76.6	9.00
C[C@H](Oc1cc(N2CCNC3(COC3)C2)nc(-c2onc3c2CCC[C@@]32CCCc3sc(N)c(C#N)c32)n1)[C@@H]1CCCN1C [I-4]	< 4.8		9.00
C[C@H](Oc1cc([C@H]2CCN(C)C2)nc(-c2noc3c2CCC[C@@]32CCCc3sc(N)c(C#N)c32)n1)[C@@H]1CCCN1C [II-38]	0.2	104	9.00
C[C@H](Oc1cc(N2C[C@H](C)N(C)[C@@H](C)C2)nc(-c2onc3c2CCC[C@@]32CCCc3sc(N)c(C#N)c32)n1)[C@@H]1CCCN1C [I-43]	2.6	6.7	9.00
C[C@H](Oc1cc(N2C[C@@H](N(C)C)[C@@H](O)C2)nc(-c2noc3c2CCC[C@@]32CCCc3sc(N)c(C#N)c32)n1)[C@@H]1CCCN1C [II-10]	0.3	68	8.70
C[C@H](Oc1cc(-n2ccc(C(N)=O)n2)nc(-c2noc3c2CCC[C@@]32CCCc3sc(N)c(C#N)c32)n1)[C@@H]1CCCN1C [II-21]	3.5	6.6	8.70
C[C@H](Oc1cc(N2CC[C@H](N(C)C)C2)nc(-c2noc3c2CCC[C@@]32CCCc3sc(N)c(C#N)c32)n1)[C@@H]1C[C@@H](F)CN1C [II-15]		5.3	9.00
CO[C@H]1CCN(C)[C@@H]1[C@H](C)Oc1cc(N2CCNC3(CC3)C2)nc(-c2onc3c2CCC[C@@]32CCCc3sc(N)c(C#N)c32)n1 [I-49]	10	2.9	9.00
C[C@H](Oc1cc(-c2ccn(C[C@@H]3CCCO3)n2)nc(-c2noc3c2CCC[C@@]32CCCc3sc(N)c(C#N)c32)n1)[C@@H]1CCCN1C [II-43]	10	1.2	8.70
C[C@H](Oc1cc(-c2ccn([C@H]3CCCOC3)n2)nc(-c2noc3c2CCC[C@@]32CCCc3sc(N)c(C#N)c32)n1)[C@@H]1CCCN1C [II-42]		2	8.70
C[C@H](Oc1cc(N2CCC(N(C)C)CC2)nc(-c2noc3c2CCC[C@@]32CCCc3sc(N)c(C#N)c32)n1)[C@@H]1CCCN1C [II-48]	0.6	32.2	9.00
C[C@H](Oc1cc(N2CCN(C)C3(COC3)C2)nc(-c2onc3c2CCC[C@@]32CCCc3sc(N)c(C#N)c32)n1)[C@@H]1C[C@@H](F)CN1C [I-37]	12	2	9.00
C[C@H](Oc1cc(N2C[C@H]3CN(C)C[C@H]3C2)nc(-c2noc3c2CCC[C@@]32CCCc3sc(N)c(C#N)c32)n1)[C@@H]1CCCN1C [II-33]	0.4	52.3	8.70
C[C@H](Oc1cc([C@@H]2CCN(C)C2)nc(-c2noc3c2CCC[C@@]32CCCc3sc(N)c(C#N)c32)n1)[C@@H]1CCCN1C [II-37]	0.2	121	9.00
C[C@H](Oc1cc(-n2ccc(C(=O)NC3(C)COC3)n2)nc(-c2noc3c2CCC[C@@]32CCCc3sc(N)c(C#N)c32)n1)[C@@H]1CCCN1C [II-26]	11	5.8	8.70
COCCNC(=O)c1ccn(-c2cc(O[C@@H](C)[C@@H]3CCCN3C)nc(-c3onc4c3CCC[C@@]43CCCc4sc(N)c(C#N)c43)n2)n1 [I-58]	14	3.4	9.00
C[C@H](Oc1cc(N2CC[C@H](N3CCCC3)C2)nc(-c2noc3c2CCC[C@@]32CCCc3sc(N)c(C#N)c32)n1)[C@@H]1CCCN1C [II-14]	1	32.3	9.00
